Key:
rats = test: locomotor activity (horizontal activity) in rats; assay type: in vivo; conditions: i.p. 15 min before test, starting at the dose of 100 mg/kg
Protocol: EXAMPLE 4: Effect of (R)-phenylpiracetam on locomotor activity (horizontal activity) in rats - Fig. 3
Experimentally naive adult male Sprague-Dawley rats (230-300 g) are kept four per cage, in a room with controlled temperature (21 ± 1°C) and humidity. Food and water are available ad libitum and the animals are kept under an alternating 12 h / 12 h day-night cycle (lights on at 07.00) for at least 6 days before the experiments are started. Each animal is used only once. Experimental group consist of 8 animals per group.
Horizontal locomotor activity was measured in 8 perspex boxes (ENV-515-16, 43.2 cm x 43.2 cm x 30 cm), Med-Associates Inc.) equipped with 4 arrays of 16 infrared photobeams placed 3 cm above the floor. Distance travelled (DT) was used in further analysis as a measure of locomotion.
(R)-Phenylpiracetam was administered i. p. in a volume of 2 ml/kg in saline
Data with locomotor activity were analyzed by means of Kruskal-Wallis ANOVA on ranks followed, if significant, by rank sum test.

[1] = brain microdialysis: concentration of (R)-phenylpiracetam in the brain after i.p. application; assay type: in vivo, rats; conditions: rat
Protocol: EXAMPLE 3: Assessment of the concentration of (R)-phenylpiracetam in the brain using brain microdialysis - Figs. 2, 14, 15
Naive adult male Sprague-Dawley rats (240-360 g, Janvier, France) were used for the study kept under standard conditions. All experiments were conducted during the light period of the day-night cycle.
Siliconized guide cannula (MAB 6.14.IC) (MAB, Stockhom, Sweden) were implanted unilaterally in pentobarbital anaesthetized animals aiming at the caudatus putamen (CPu; AP: +0.1, LM: ± 2.6, DV: -3.2 mm relative to bregma; -3.3 mm interaural) according to the atlas of Paxinos and Watson (loc. cit.). Rats were given at least 3 days to recover from surgery before starting microdialysis experiments.
Microdialysis experiments were performed in the home cage of the animal. A microdialysis probe (MAB 6.14.4.; 4 mm exposed membrane length, polyethersulfone (PES) membrane; MAB, Stockholm, Sweden) was lowered through the guide cannula into the CPu (ventral position of probe tip with reference to the skull: -7.2 mm) ca. 12 hours before the sampling and left in place for the whole testing period.
The probes were perfused with aCSF at a flow rate of 2 µl/min using a CMA 102 perfusion pump (CMA, Solna, Sweden). The composition of the aCSF was 147 mM Na^+, 2.7 mM K^+, 1.2 mM Ca^2+, 0.85 mM Mg^2+, 0.04 mM ascorbic acid. […]

NC(=O)CN1C[C@@H](c2ccccc2)CC1=O [(R)-phenylpiracetam]
locomotor activity (horizontal activity) (rats): increases locomotor activity
free concentration in extracellular fluid in the brain ([1]; 50 mg/kg): 20 µM
free concentration in extracellular fluid in the brain ([1]; 100 mg/kg): 50 µM

Source: patent EP2891491A1, “Use of (r)-phenylpiracetam for the treatment of sleep disorders” (Merz Pharma GmbH & Co. KGaA, priority 2014, dated 2015)
